{
  "source": "paper PMC11802874",
  "about": "“The hypolipidemic effect of MI-883, the combined CAR agonist/ PXR antagonist, in diet-induced hypercholesterolemia model” (Nature Communications, 2025)",
  "key": {"HepaRG cells": {"test_system": "HepaRG cells", "assay": "RT-qPCR mRNA expression in differentiated HepaRG cells", "settings": "Phenobarbital 500 μM, CITCO 1 μM, MI 883 1 μM; ctrl = 1", "source_text": "(§3) HepaRG cells from Biopredic (Rennes, France) were cultivated and differentiated on the 12-well plates. […] Several batches of HepaRG KO CAR (CAR Knockout HepaRG™ Cells, MTOX1012-1VL, RRID:CVCL_B6AA) and PXR Knockout HepaRG™ Cells, MTOX1011-1VL, RRID:CVCL_B6AS) cells have been obtained from Sigma-Aldrich/Merck (Darmstadt, Germany) and cultivated according to the provider’s protocols. […] Experiments with HepaRG KO PXR and HepaRG KO CAR cells have been performed in duplicates at least in two independent experiments.\n(§4) RT-qPCR was used to examine gene expression in 2D and 3D PHH, HepaRG cells, or in mouse liver or intestine (ileum) samples as we have described before[60]–[62].\n(§5) All qRT-qPCR experiments including Trizol reagent (Life Technologies) total RNA isolation, reverse-transcription using a random hexaprimer, and the MMLV Reverse Transcriptase Kit (ThermoFisher Scientific) we have described before^19. qPCR was performed using TaqMan Fast Advanced Master Mix with TaqMan probes (ThermoFisher Scientific). […] The delta-delta method was used for gene expression quantification normalized to at least two reference genes. Three technical replicates were used for each reaction considering the MIQE guidelines. Data are presented as fold induction to vehicle-treated cells/animals."}, "[1]": {"test_system": "primary human hepatocytes (PHH)", "assay": "RT-qPCR mRNA expression in 2D primary human hepatocytes", "source_text": "The cells were cultivated as 2D monolayers according to the manufacturer’s protocol.\nas §4"}, "[2]": {"molecular_target": "T1, human CAR ligand-binding domain (LBD) (Homo sapiens, UniProt Q14994)", "T1 construct": "purchased ThermoFisher Scientific PV4836", "T1 sequence (Q14994 109-348 isoform Q14994-2 limits assumed, other chains not shown)": "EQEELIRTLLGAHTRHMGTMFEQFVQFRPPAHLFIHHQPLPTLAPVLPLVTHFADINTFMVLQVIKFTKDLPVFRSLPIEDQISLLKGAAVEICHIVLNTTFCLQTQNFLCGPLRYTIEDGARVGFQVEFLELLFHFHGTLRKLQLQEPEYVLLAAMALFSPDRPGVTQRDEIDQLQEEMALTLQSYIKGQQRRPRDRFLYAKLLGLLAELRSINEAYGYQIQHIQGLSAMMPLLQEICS", "assay": "TR-FRET CAR coactivator assay (LanthaScreen)", "assay_type": "biochemical"}, "[3]": {"assay": "Stability in mouse plasma", "assay_type": "in vitro ADME", "settings": "read-out: Stability in mouse plasma, t1/2", "from_the_text": "(§1) Plasma protein binding, and stability in human and mouse plasma have been tested as previously described."}, "HepaRG KO CAR cells": {"test_system": "HepaRG KO CAR cells", "assay": "RT-qPCR mRNA expression in HepaRG KO CAR cells", "assay_type": "cell-based, human", "settings": "Phenobarbital 500 μM, CITCO 1 μM, MI 883 1 μM; ctrl = 1", "source_text": "as §3, §4, §5"}, "[4]": {"assay": "Mouse plasma protein binding", "assay_type": "in vitro ADME", "from_the_text": "as §1"}, "[5]": {"assay": "Metabolic stability in human liver S9 fraction", "settings": "human, liver S9 fraction", "protocol": "(§2) Shimadzu HPLC system including vacuum degasser, gradient pumps, reverse phase HPLC column, column oven, and autosampler with an API 4000 QTRAP mass spectrometer (Applied Biosystems/MDS Sciex (AB Sciex) with Turbo V ion source and TurboIonspray interface were used. The reference compound midazolam, which is metabolized both by phase I and phase II enzymes, was used. The elimination constant (kel), half-life (t1/2), and intrinsic clearance (Clint) were determined[19] (Table S1).\nSupplementary Figure 1. […] Test compounds (1 μM, final DMSO concentration 1%) were incubated at 37 °C with shaking at 100 rpm. Four time points over 120 minutes have been analyzed. The reactions were stopped by adding 420 μL of acetonitrile-water mixture (90:10). Supernatants were analyzed by the HPLC system coupled with a tandem mass spectrometer. The percentage (in % of initial concertation) of the test compounds remaining after incubation in plasma and their half-lives (t1/2) were calculated. […] The stability of the compound was tested in human liver S9 fraction. Cofactors were used such as UDPGA (for glucuronidation), PAPS (for sulfation), and reduced glutathione (for conjugation of GSH). Compounds were tested in triplicate with or without NADPH. Propantheline and midazolam were used as unstable control compounds in the experiments. Data represent the means±S.D. from at least three independent samples."}, "human CAR variant 3": {"molecular_target": "T2, human CAR variant 3 (Homo sapiens, UniProt Q14994, DEL233-236)", "T2 construct": "host or cells: HepG2", "T2 sequence (Q14994 with tags, fused parts or gaps isoform Q14994-8 DEL233-236)": "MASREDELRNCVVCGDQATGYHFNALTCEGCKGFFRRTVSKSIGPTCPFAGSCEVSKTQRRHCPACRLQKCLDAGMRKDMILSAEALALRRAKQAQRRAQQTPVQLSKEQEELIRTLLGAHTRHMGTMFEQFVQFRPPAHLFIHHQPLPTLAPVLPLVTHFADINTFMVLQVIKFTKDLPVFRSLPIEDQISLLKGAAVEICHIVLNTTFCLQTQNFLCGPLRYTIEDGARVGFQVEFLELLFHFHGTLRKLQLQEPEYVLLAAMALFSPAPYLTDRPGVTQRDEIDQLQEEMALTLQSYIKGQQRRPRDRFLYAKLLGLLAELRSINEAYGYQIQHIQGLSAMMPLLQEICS", "T2 sequence (P19793 1-462 partner)": "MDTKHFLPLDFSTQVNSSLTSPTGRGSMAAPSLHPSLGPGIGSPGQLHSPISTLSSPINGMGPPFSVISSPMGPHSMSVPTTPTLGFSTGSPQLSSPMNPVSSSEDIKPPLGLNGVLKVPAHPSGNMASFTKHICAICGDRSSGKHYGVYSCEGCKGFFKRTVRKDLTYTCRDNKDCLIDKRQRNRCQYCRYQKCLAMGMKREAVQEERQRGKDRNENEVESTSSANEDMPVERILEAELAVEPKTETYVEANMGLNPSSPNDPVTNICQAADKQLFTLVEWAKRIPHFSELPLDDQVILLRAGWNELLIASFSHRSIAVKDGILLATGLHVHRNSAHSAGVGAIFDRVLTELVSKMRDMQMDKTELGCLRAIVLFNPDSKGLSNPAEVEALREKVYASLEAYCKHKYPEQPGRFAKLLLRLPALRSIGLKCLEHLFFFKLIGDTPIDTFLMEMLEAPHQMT", "assay": "CAR3 luciferase reporter assay (CYP2B6-luc) in HepG2 cells", "assay_type": "cell-based", "protocol": "CAR3 luciferase reporter assay (with CYP2B6-luc) was performed in human hepatocellular carcinoma HepG2 cells as we described[19] For the CAR3 assay (Fig. 1d), a CYP2B6-luc reporter plasmid (originally entitled B-1.6k/PB/XREM) was kindly donated by Dr. Hongbing Wang (University of Maryland School of Pharmacy, Baltimore, MD, USA). All expression vectors are described in Supplementary, Chapter 4).\nCells were treated for 24 h with MI-883 in a range of concentration from 0.1 nM to 30 µM (n = 3). The half maximal effective concentration (EC50) to activate CAR or inhibit PXR (IC50) in the assays was calculated from at least eight points of the dose-response curves using the GraphPad Prism software."}, "[6]": {"test_system": "humanized PXR-CAR-CYP3A4/3A7 mice", "assay": "Hepatic induction study in humanized PXR-CAR-CYP3A4/3A7 mice (i.p.)", "assay_type": "in vivo, mouse", "settings": "single agents i.p.: Rif 3×5 mg/kg, CITCO 10 mg/kg two doses, MI-883 10 mg/kg 3 days", "from_the_text": "In the induction experiments, […] was sampled from the gallbladder."}, "[7]": {"assay": "Metabolic stability in mouse liver S9 fraction", "settings": "male, CD-1, mouse, liver S9 fraction", "protocol": "as §2"}, "GRα": {"molecular_target": "GRα (Homo sapiens, UniProt P04150)", "sequence (P04150 whole entry)": "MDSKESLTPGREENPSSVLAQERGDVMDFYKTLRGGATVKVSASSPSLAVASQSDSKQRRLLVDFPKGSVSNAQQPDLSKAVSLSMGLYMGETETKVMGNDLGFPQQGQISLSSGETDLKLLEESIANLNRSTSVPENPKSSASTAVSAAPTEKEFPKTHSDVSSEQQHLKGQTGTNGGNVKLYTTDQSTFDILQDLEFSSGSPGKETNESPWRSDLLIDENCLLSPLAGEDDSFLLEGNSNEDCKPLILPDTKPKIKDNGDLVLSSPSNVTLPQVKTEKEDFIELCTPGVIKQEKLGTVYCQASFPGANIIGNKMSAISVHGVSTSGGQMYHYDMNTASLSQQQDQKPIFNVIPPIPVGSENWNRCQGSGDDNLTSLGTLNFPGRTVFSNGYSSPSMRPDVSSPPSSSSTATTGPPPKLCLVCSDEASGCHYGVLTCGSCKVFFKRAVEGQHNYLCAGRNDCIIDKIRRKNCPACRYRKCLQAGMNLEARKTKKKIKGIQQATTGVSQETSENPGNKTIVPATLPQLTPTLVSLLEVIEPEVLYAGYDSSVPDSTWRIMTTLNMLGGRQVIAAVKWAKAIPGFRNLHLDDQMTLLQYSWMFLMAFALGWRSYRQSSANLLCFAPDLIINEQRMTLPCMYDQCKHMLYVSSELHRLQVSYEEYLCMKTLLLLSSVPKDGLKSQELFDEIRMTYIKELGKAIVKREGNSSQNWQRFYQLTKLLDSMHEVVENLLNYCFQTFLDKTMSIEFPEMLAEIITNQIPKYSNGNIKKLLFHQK", "assay": "Luciferase reporter gene assay GRα, HepG2", "settings": "ligand: Dexamethasone 100 nM", "source_text": "Gal4-LBD constructs of tested nuclear receptors have been used together with pGL4.31[luc2P/GAL4UAS/Hygro] luciferase reporter construct and pRL-TK Renilla expression vector (both from Promega, Hercules, USA) in HepG2 cells transfected with Lipofectamine 2000 or 3000 reagents. For GRα and FXR receptors, full-length expression vectors have been used with pGRE-luc or pFXRE-luc luciferase constructs. For the aryl hydrocarbon receptor (AhR), p1A1-luc construct was used with only pRL-TK vector for transfection normalization. A dual reporter assay (Promega, Hercules, USA) was used to analyze both firefly and Renilla luciferase activities.\nGal4-LBD constructs of tested nuclear receptors have been used together with pGL5-luc luciferase reporter construct and pRL-TK Renilla expression vector in HepG2 cells transfected with Lipofectamine 2000 or 3000 reagents. For GRα and FXR receptors, full-length expression vectors have been used with pGRE-luc or pFXRE-luc luciferase constructs. For the aryl hydrocarbon receptor (AhR), p1A1-luc construct was used with only pRL-TK vector for transfection normalization. […] Bars represent means±S.D. (n=3)."}, "[8]": {"settings": "single agent 5 μM: MI-883, CITCO (5 μM) alone"}},
  "note": "Values joined by “and” are separate entries in the source; they are usually repeats but may differ in a detail not shown here. Equal entries are not always repeated.",
  "data": [
    {"smiles": "Clc1ccc(-c2nc3sccn3c2C=NOCc2ccc(Cl)c(Cl)c2)cc1", "note": "[CITCO, 6-(4-chlorophenyl)imidazo[2,1-b][1,3]thiazole-5-carbaldehyde-O-(3,4-dichlorobenzyl)oxime, reference compound]", "values": [
      {"measurement": "CYP2B6 mRNA, RT-qPCR, HepaRG (Fig. 1f), replicates", "setting": "HepaRG cells", "result": "6.95 and 5.3 and 5.5"},
      {"measurement": "CYP2B6 mRNA, RT-qPCR, PHH (Fig. 1g), replicates", "setting": "[1]; 1 mM, ctrl = 1", "result": "10.10 and 18.10 and 7.00"},
      {"measurement": "CYP2B6 mRNA in PHH 2 donors (Fig. 3c)", "setting": "[1]; [8]", "result": "11.1246 and 12.1237"},
      {"measurement": "CYP3A4 mRNA in PHH 2 donors (Fig. 3c)", "setting": "[1]; [8]", "result": "2.55 and 3.999"},
      {"measurement": "TR-FRET CAR Coactivator assay, mean signal (Fig. 1b)", "setting": "[2]; 100pM", "result": 1},
      {"measurement": "TR-FRET CAR Coactivator assay, mean signal (Fig. 1b)", "setting": "[2]; 1nM", "result": 1.176},
      {"measurement": "TR-FRET CAR Coactivator assay, mean signal (Fig. 1b)", "setting": "[2]; 10nM", "result": 1.375},
      {"measurement": "TR-FRET CAR Coactivator assay, mean signal (Fig. 1b)", "setting": "[2]; 30nM", "result": 1.960},
      {"measurement": "TR-FRET CAR Coactivator assay, mean signal (Fig. 1b)", "setting": "[2]; 100nM", "result": 2.115},
      {"measurement": "TR-FRET CAR Coactivator assay, mean signal (Fig. 1b)", "setting": "[2]; 0.5μM", "result": 2.111},
      {"measurement": "TR-FRET CAR Coactivator assay, mean signal (Fig. 1b)", "setting": "[2]; 1 μM", "result": 2.154},
      {"measurement": "TR-FRET CAR Coactivator assay, mean signal (Fig. 1b)", "setting": "[2]; 10 μM", "result": 2.134},
      {"measurement": "TR-FRET CAR Coactivator assay, mean signal (Fig. 1b)", "setting": "[2]; 30 μM", "result": 2.146},
      {"measurement": "half-life", "setting": "[3]", "result": "> 120", "unit": "min"},
      {"measurement": "CYP2B6 mRNA, RT-qPCR, HepaRG KO CAR (Fig. 1f), replicates", "setting": "HepaRG KO CAR cells", "result": "1.15 and 1.05 and 0.84"},
      {"measurement": "fraction unbound", "setting": "[4]", "result": 0.02},
      {"measurement": "half-life at 2 µM", "setting": "[5]", "result": 22.5, "unit": "min"},
      {"measurement": "microsomal CLint at 2 µM", "setting": "[5]", "result": 15, "unit": "µL/min/mg"},
      {"measurement": "CAR3 variant activation (Fig. 1d), replicates", "setting": "human CAR variant 3; concentration 0.01 (unit not given), HepG2, 24 h", "result": "0.85 and 0.95 and 1.03"},
      {"measurement": "CAR3 variant activation (Fig. 1d), replicates", "setting": "human CAR variant 3; concentration 0.1 (unit not given)", "result": "0.4 and 1 and 3.5"},
      {"measurement": "CAR3 variant activation (Fig. 1d), replicates", "setting": "human CAR variant 3; concentration 1 (unit not given)", "result": "1.25 and 6.4 and 1.2"},
      {"measurement": "CAR3 variant activation (Fig. 1d), replicates", "setting": "human CAR variant 3; concentration 10 (unit not given)", "result": "10 and 12.8 and 12"},
      {"measurement": "CAR3 variant activation (Fig. 1d), replicates", "setting": "human CAR variant 3; concentration 30 (unit not given)", "result": "20.7 and 11.1 and 15.3"},
      {"measurement": "hepatic CYP3A4 mRNA, hPXR/hCAR/CYP3A4/7 mice (Fig. 3e), individual animals", "setting": "[6]", "result": "3.5706 and 5.153 and 1.198 and 3.457"},
      {"measurement": "hepatic Cyp2b10 mRNA, hPXR/hCAR/CYP3A4/7 mice (Fig. 3e), individual animals", "setting": "[6]", "result": "6.356 and 6.521 and 7.777 and 9.457"},
      {"measurement": "half-life", "setting": "[7]", "result": 39.2, "unit": "min"},
      {"measurement": "microsomal CLint", "setting": "[7]", "result": 9, "unit": "µL/min/mg"}
    ]},
    {"smiles": "C[C@@H]1C[C@H]2[C@@H]3CCC4=CC(=O)C=C[C@]4(C)[C@@]3(F)[C@@H](O)C[C@]2(C)[C@@]1(O)C(=O)CO", "note": "[Dexamethasone]", "values": [
      {"measurement": "NRs assays: GRa (relative to ctrl, replicates)", "setting": "GRα", "result": "19.01 and 18.01 and 16.69"}
    ]}
  ]
}
